The supplement of paper PMC10307832

Columns and labels:
Assay in all cases: relative viability (nuclei count vs DMSO), 5 days (fraction); higher = more cells survive
Kobe2602 = compound: C1=CC(=CC=C1NC(=S)NNC2=C(C=C(C=C2[N+](=O)[O-])C(F)(F)F)[N+](=O)[O-])F [Kobe2602]
Procedure, shortened: (§1)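 On vehicle-anchored 1536-well plates, lung cancer cell lines held overnight at 37 °C were pinned with five library-drug doses (not always all listed) spaced by √10. With no medium change over 5 days, they were then fixed, permeabilised and Hoechst-stained in one step and imaged at 4×. MetaXpress counted nuclei, and viability is the median across plates of treated-well over vehicle-well nuclei. Acceptance needed control CV below 25% and at least one doubling.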

Cabozantinib = compound: COc1cc2nccc(Oc3ccc(NC(=O)C4(C(=O)Nc5ccc(F)cc5)CC4)cc3)c2cc1OC [Cabozantinib]
Procedure, shortened: as §1

Zosuquidar = compound: O[C@@H](COc1cccc2ncccc12)CN1CCN([C@@H]2c3ccccc3[C@@H]3[C@H](c4ccccc42)C3(F)F)CC1 [Zosuquidar]
Procedure, shortened: as §1

Zosuquidar + Trametinib = compound: O[C@@H](COc1cccc2ncccc12)CN1CCN([C@@H]2c3ccccc3[C@@H]3[C@H](c4ccccc42)C3(F)F)CC1 [Zosuquidar] + CC(=O)Nc1cccc(-n2c(=O)n(C3CC3)c(=O)c3c(Nc4ccc(I)cc4F)n(C)c(=O)c(C)c32)c1 [Trametinib] (partner 0.02 µM)
Procedure, shortened: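 A single step with final 0.05% Triton X-100, 1% formaldehyde and 1 ug/ml Hoechst fixed the cells and stained nuclei 5 days after treatment. Lung cancer cell lines in 1536-well plates had been treated by pin tool the day after seeding with one drug alone or a fixed anchor-drug dose plus five library-drug doses (not always all listed) in √10 steps, and nuclei were counted on 4× images. Relative viability is the ratio of nuclei in treated wells to nuclei in vehicle wells, taken as the median of duplicate plates.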

Question: Which relative viability (Kobe2602; 0.2 µM) does the source give for UMC-11 here?
Answer: 1.05

Question: What about the relative viability (Kobe2602; 0.6325 µM) of the same cell line?
Answer: 1.01

Question: And the relative viability (Kobe2602; 2 µM)?
Answer: 1.06

Question: And the relative viability (Kobe2602; 6.325 µM)?
Answer: 0.975

Question: And the relative viability (Kobe2602; 20 µM)?
Answer: 1.05

Question: And the relative viability (Cabozantinib; 0.02 µM)?
Answer: 0.989

Question: What about the relative viability (Cabozantinib; 0.06325 µM) of the same cell line?
Answer: 1.11

Question: And the relative viability (Cabozantinib; 0.2 µM)?
Answer: 0.963

Question: What about the relative viability (Cabozantinib; 0.6325 µM) of the same cell line?
Answer: 1.04

Question: What about the relative viability (Cabozantinib; 2 µM) of the same cell line?
Answer: 1

Question: What about the relative viability (Zosuquidar; 0.01 µM) of the same cell line?
Answer: 0.957

Question: What about the relative viability (Zosuquidar; 0.03162 µM) of the same cell line?
Answer: 1.04

Question: And the relative viability (Zosuquidar; 0.1 µM)?
Answer: 0.908

Question: What about the relative viability (Zosuquidar; 0.3162 µM) of the same cell line?
Answer: 1.11

Question: What about the relative viability (Zosuquidar; 1 µM) of the same cell line?
Answer: 0.96

Question: And the relative viability (Zosuquidar + Trametinib; first compound 0.01 µM)?
Answer: 0.668

Question: And the relative viability (Zosuquidar + Trametinib; first compound 0.03162 µM)?
Answer: 0.758

Question: What about the relative viability (Zosuquidar + Trametinib; first compound 0.1 µM) of the same cell line?
Answer: 0.623

Question: And the relative viability (Zosuquidar + Trametinib; first compound 0.3162 µM)?
Answer: 0.833

Question: And the relative viability (Zosuquidar + Trametinib; first compound 1 µM)?
Answer: 0.606
